Measured values reported in patent publication US20240122179A1, “AUXINIC HERBICIDES AND METHODS OF USE THEREOF” (CORTEVA AGRISCIENCE LLC, priority 2021, published 2024).
Read-outs that look alike come from different tables or passages of the source.

What was measured:
[1] = tested on: Ambrosia artemisiifolia (AMBEL); test: Postemergence herbicide evaluation, percent reduction in plant size vs untreated control, 21 days after treatment; format: in vivo, Ambrosia artemisiifolia (common ragweed); settings: post-emergence, 504 h, read-out: Control/Injury
In short: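 Greenhouse-grown plants (25–28 °C, 16 h light) were sprayed postemergence at the 2–8 leaf stage with 140 or 280 g ae/ha in acetone/DMSO-based spray solution with crop oil and surfactant, at 187 L/ha by track sprayer. There were 3–4 replicates. Plant size was measured 21 days after treatment versus untreated plants.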

[2] = tested on: Amaranthus palmeri (AMAPA); test: as above; format: in vivo, Amaranthus palmeri (Palmer amaranth); settings: post-emergence, 504 h, read-out: Control/Injury
In short: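 Greenhouse-grown Palmer amaranth (25 to 28° C, 16 h light) sprayed postemergence at the 2 to 8 leaf stage with 140 or 280 g ae/ha in acetone/DMSO-based solution containing crop oil concentrate, 187 L/ha by track sprayer. Three to four replicates; plant size measured 21 days after treatment as percent reduction versus untreated control.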

[3] = tested on: Conyza canadensis (L.) (ERICA); test: as above; format: in vivo, Conyza canadensis (L.) (Horseweed); settings: Erigeron canadensis, post-emergence, 504 h, read-out: Control/Injury
In short: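 Horseshoe-weed (horseweed) seedlings at 2 to 8 leaf stage in greenhouse (25-28° C, 16 h light), sprayed postemergence at 140 or 280 g ae/ha in acetone/DMSO-based spray solution, 187 L/ha track-sprayer. Randomized complete block, 3-4 replicates; plant size measured 21 days after treatment as percent reduction vs untreated controls.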

Amaranthus rudis (AMATA) = test: as above; format: in vivo, Amaranthus rudis (tall water hemp); settings: Amaranthus tuberculatus, post-emergence, 504 h, read-out: Control/Injury
In short: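 Greenhouse-grown tall waterhemp (25-28° C, 16 h light) at the 2-8 leaf stage, treated by track sprayer at 187 L/ha with compound at 140 or 280 g ae/ha in acetone/DMSO-based spray solution with crop oil and surfactant. 3-4 replicates per treatment, randomized complete block; plant size reduction versus untreated control measured 21 days after treatment.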

Glycine max = test: whole plant or invertebrate; settings: for plant injury at 140 g/ha / plant injury at 280 g/ha: Glycine max, post-emergence, 504 h, read-out: Control/Injury
Procedure: Plants were grown in a soil media composed of 90% by volume Promix BX (Premier Tech Horticulture, Quakertown, PA) and 10% Profile Greens Grade (Profile Products LLC, Buffalo Grove, IL). Promix BX contains approximately 83% Sphagnum Peat Moss, 13% Perlite, 5% vermiculite, and proprietary amounts of limestone, starter fertilizer, and wetting agent. Profile Greens Grade is a sand-sized granule formed from calcining illite and montmorillonite clay. Several seeds of each species were planted in 10 cm square pots and top watered twice daily. Plant material was propagated in a warm greenhouse with temperature ranging from 25 to 28° C. and 50 to 60% relative humidity at the Corteva Global Headquarters (Indianapolis, Indiana, USA). Natural light was supplemented with 1000-watt metal halide overhead lamps with an average illumination of 500 μE m^−2 s^−1 photosynthetic active radiation for 16 consecutive hours each day. Plants were top-watered prior to herbicide application and sub-watered after herbicide application.
Appropriate amounts of test materials were weighed out into glass vials in their technical form to deliver either 140 or 280 g acid equivalent (ae)/ha. The samples were dissolved in 3 ml of Solvent 1. Solvent 1 is 97% acetone and 3% dimethyl sulfoxide and serves as a general-purpose solvent (GPS) for dissolving technical materials. […] The samples were then diluted to their final concentration using 17 ml of solvent 2 for a total of 20 ml of spray solution. Solvent 2 contains 41.58% GPS, 45.53% water, 11.88% isopropyl alcohol, 0.99% crop oil concentrate and 0.02% Trition X-155 surfactant. All percentages are listed on a volume basis. Dicamba diglycolamine was applied as a formulated herbicide, Clarity™ and diluted with solvent 2 to compare all materials in the same spray solution.
Herbicide applications were made to 3 to 4 replicates of each plant species at the 2 to 8 leaf stage, depending on the species. Treatments were applied with a research track-sprayer (Generation III Research Sprayer manufactured by DeVries Manufacturing in Hollandale, MN, USA) calibrated to deliver a spray volume of 187 L/ha. The track-sprayer was fitted with an 8003E nozzle from Spray Systems Company (North Avenue and Schmale Road, P.O. Box 7900, Wheaton, IL 60187), and used a spray pressure of 276 kPa pressure and a speed of 3.1 km/h. The nozzle height was 46 cm above the plant canopy. The experimental design used for the trials was a randomized complete block with 3 or 4 replications per treatment. After application, plants were placed on carts according to the randomization and returned to the greenhouse. Plants were sub-watered after treatment with Indianapolis city water or fertilized three times a week with a commercial fertilizer solution (Jack's Professional 15-5-15 4 Ca 2 Mg fertilizer (manufactured by JR PETERS INC., 6656 Grant Way, Allentown, PA 18106; www.jrpeters.com). Percent visual control assessments were made on a scale of 0 to 100% (where 0 was no control and 100 was complete plant death) at 7, 14, and 21 days after treatment.
In conformity with the methods outlined in Example 49, the effect of representative experimental compounds on the growth of Glycine max was determined at 2 different levels (respectively, 140 and 280 g acid equivalent (ae)/ha) of the experimental actives tested. Plants were treated with one of the compounds, a control plant was not treated. Twenty-one days after treatment, the plants were measured. The data is present as a percent reduction in plant size relative to the untreated control.

Kochia scoparia (KCHSC) = test: Postemergence herbicide evaluation, percent reduction in plant size vs untreated control, 21 days after treatment; format: in vivo; settings: Bassia scoparia, post-emergence, 504 h, read-out: Control/Injury
In short: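 Greenhouse-grown plants (25-28 °C, 16 h light) at the 2 to 8 leaf stage were track-sprayed postemergence at 140 or 280 g ae/ha in acetone/DMSO-based spray solution with crop oil and surfactant, at 187 L/ha, in 3-4 randomized replicates.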

[4] = AMBEL, rate 140 g ae/ha, postemergence
[5] = AMBEL, rate 280 g ae/ha, postemergence
[6] = R-AMAPA, rate 140 g ae/ha, postemergence, percent reduction vs untreated control, 21 days after treatment
[7] = R-AMAPA, rate 280 g ae/ha, postemergence, percent reduction vs untreated control, 21 days after treatment
[8] = ERICA, rate 140 g ae/ha, postemergence, percent reduction vs untreated control, 21 days after treatment
[9] = ERICA, rate 280 g ae/ha, postemergence, percent reduction vs untreated control, 21 days after treatment
[10] = AMATA, rate 140 g ae/ha, postemergence
[11] = AMATA, rate 280 g ae/ha, postemergence
[12] = KCHSC, rate 140 g ae/ha, postemergence
[13] = KCHSC, rate 280 g ae/ha, postemergence, percent reduction vs untreated control, 21 days after treatment
[14] = KCHSC, rate 140 g ae/ha, postemergence, percent reduction vs untreated control, 21 days after treatment
[15] = KCHSC, rate 140 g ae/ha, postemergence, percent reduction vs untreated, 21 days after treatment
[16] = KCHSC, rate 280 g ae/ha, postemergence, percent reduction vs untreated, 21 days after treatment

SMILES | pest or weed control at 140 g/ha [1, 4] [%] | pest or weed control at 280 g/ha [1, 5] [%] | pest or weed control at 140 g/ha [2, 6] [%] | pest or weed control at 280 g/ha [2, 7] [%] | pest or weed control at 140 g/ha [3, 8] [%] | pest or weed control at 280 g/ha [3, 9] [%] | pest or weed control at 140 g/ha (Amaranthus rudis (AMATA); [10]) [%] | pest or weed control at 280 g/ha (Amaranthus rudis (AMATA); [11]) [%] | plant injury at 140 g/ha (Glycine max) [%] | plant injury at 280 g/ha (Glycine max) [%] | pest or weed control at 280 g/ha (Kochia scoparia (KCHSC); [13]) [%] | pest or weed control at 140 g/ha (Kochia scoparia (KCHSC); [14]) [%] | other results
COc1c(Cl)ccc(Cl)c1C(=O)NS(=O)(=O)c1ccc(C)cc1 [Compound A-78] | 45 | 57 | 23 | 32 | 5 | 15 | 12 | 20 | 25 | 67 | 85 |  | pest or weed control at 140 g/ha (Kochia scoparia (KCHSC); [12]): 50%
COc1c(Cl)ccc(Cl)c1C(=O)ON1CCCCC1 [Compound A-92] | 92 | 96 | 78 | 80 | 85 | 92 | 63 | 92 | 2 | 4 | 98 | 83 | 
COc1c(Cl)ccc(Cl)c1C(=O)O/N=C(\N)CCC/C(N)=N/OC(=O)c1c(Cl)ccc(Cl)c1OC [Compound A-144] | 88 | 88 | 59 | 71 |  |  | 71 | 77 |  |  |  |  | pest or weed control at 140 g/ha ([3]; ERICA, rate 140 g ae/ha, postemergence, percent reduction vs untreated, 21 days after treatment): 83%; pest or weed control at 280 g/ha ([3]; ERICA, rate 280 g ae/ha, postemergence, percent reduction vs untreated, 21 days after treatment): 75%; Control/Injury (Glycine max; in vivo): 0; pest or weed control at 140 g/ha (Kochia scoparia (KCHSC); [15]): 89%; pest or weed control at 280 g/ha (Kochia scoparia (KCHSC); [16]): 99%
COc1c(Cl)ccc(Cl)c1C(=O)ONC(=O)c1cccnc1 [Compound A-94] | 75 | 83 | 73 | 80 | 62 | 77 | 68 |  | 12 | 3 | 93 | 85 | pest or weed control at 140 g/ha ([2]; AMAPA, rate 140 g ae/ha, postemergence): 83%; pest or weed control at 280 g/ha ([2]; AMAPA, rate 280 g ae/ha, postemergence): 99%; pest or weed control at 140 g/ha ([3]; ERICA, rate 140 g ae/ha, postemergence): 95%; pest or weed control at 280 g/ha ([3]; ERICA, rate 280 g ae/ha, postemergence): 99%; Control/Injury (Glycine max; in vivo): 15; pest or weed control at 140 g/ha (Kochia scoparia (KCHSC); [15]): 93%; pest or weed control at 280 g/ha (Kochia scoparia (KCHSC); [16]): 98%
COc1c(Cl)ccc(Cl)c1C(=O)O/N=C(\C#N)c1ccccc1 [Compound A-84] |  |  |  |  |  |  |  |  | 8 | 38 |  |  | pest or weed control at 140 g/ha [1]: 70%; pest or weed control at 280 g/ha [1]: 78%; pest or weed control at 140 g/ha [2]: 33%; pest or weed control at 280 g/ha [2]: 28%; pest or weed control at 140 g/ha [3]: 37%; pest or weed control at 280 g/ha [3]: 78%; pest or weed control at 140 g/ha (Amaranthus rudis (AMATA)): 17%; pest or weed control at 280 g/ha (Amaranthus rudis (AMATA)): 27%; pest or weed control at 140 g/ha (Kochia scoparia (KCHSC)): 68%; pest or weed control at 280 g/ha (Kochia scoparia (KCHSC)): 85%
COc1c(Cl)ccc(Cl)c1C(=O)OC(=O)c1c(Cl)ccc(Cl)c1OC [Compound A-90] | 57 | 67 | 32 | 40 | 30 | 25 | 22 | 18 | 8 | 3 | 32 | 17 | 
COc1c(Cl)ccc(Cl)c1C(=O)OCC[N+](C)(C)C [Compound A-63] | 82 | 97 | 73 | 87 | 85 | 92 | 58 | 77 |  |  |  |  | Control/Injury (Glycine max; GLXMA (soybean crop injury), rate 140 g ae/ha, postemergence, percent reduction vs untreated control, 21 days after treatment): 2; Control/Injury (Glycine max; GLXMA (soybean crop injury), rate 280 g ae/ha, postemergence, percent reduction vs untreated control, 21 days after treatment): 5; pest or weed control at 140 g/ha (Kochia scoparia (KCHSC); [12]): 92%; pest or weed control at 280 g/ha (Kochia scoparia (KCHSC); KCHSC, rate 280 g ae/ha, postemergence): 97%
